Measured values published in article PMC4459817, “Vasculotide reduces endothelial permeability and tumor cell extravasation in the absence of binding to or agonistic activation of Tie2” (EMBO Molecular Medicine, 2015).

System: human Tie2-Fc (extracellular domain of Tie2)
Assay: pull-down assay, human Tie2-Fc
Type: binding
Conditions: human Tie2-Fc on protein A sepharose; rhAng1 20 ng or VT 100 ng, pH 7.4, 4°C; Fig9A,B
From the text: To better understand the difficulties we had in observing Tie2 activation by VT, we sought to characterize the binding affinity and kinetics of VT to Tie2. Purified human or mouse Tie2-Fc (i.e., Fc-conjugated extracellular domains of Tie2) were first coupled to protein A sepharose beads for pull-down experiments (Fig9A and B) or immobilized on a Biacore CM5 sensor chip for surface plasmon resonance (SPR) experiments (Fig9C and Supplementary Fig S3).
Figure 9 Binding of Vasculotide vs. Ang1 variants to the extracellular domain of Tie2 • A–B Pull-down assay. Input ligands—rhAng1 (A) and VT (B)—were incubated with either protein A sepharose beads only, bead-conjugated mouse Tie2-Fc (mTie2), or bead-conjugated human Tie2-Fc (hTie2). […] The ‘unbound’ fraction is 7% of residual/free ligands remaining in the supernatant. • C Quantitative kinetics analysis by SPR. All analytes were run at increasing concentrations of 0.625, 1.25, 2.5, 5, and 10 nM, at 37°C and pH 7.4. […] Source data are available online for this figure. […]
Semi-quantitative densitometry analysis of immunoblots was performed using the ChemiGenius2 bioimaging system and GeneSnap/GeneTools software (Syngene). […]

Molecule | pull-down by Tie2-Fc
CHHHRHSF [Vasculotide, 4-armed maleimide-functionalized polyethylene glycol (PEG) backbone to link together four cysteine-capped T7 peptides, that is, CHHHRHSF] | did not pull down any appreciable levels
recombinant human Ang1 (rhAng1) (ligand, UniProt Q15389 16-498, looked up, angiopoietin-1, human, recombinant; also called angiopoietin-1; source: bought: R&D Systems (named for the Boyden chamber experiments)) HIGCSNQRRSPENSGRRYNRIQHGQCAYTFILPEHDGNCRESTTDQYNTNALQRDAPHVEPDFSSQKLQHLEHVMENYTQWLQKLENYIVENMKSEMAQIQQNAVQNHTATMLEIGTSLLSQTAEQTRKLTDVETQVLNQTSRLEIQLLENSLSTYKLEKQLLQQTNEILKIHEKNSLLEHKILEMEGKHKEELDTLKEEKENLQGLVTRQTYIIQELEKQLNRATTNNSVLQKQQLELMDTVHNLVNLCTKEGVLLKGGKREEEKPFRDCADVYQAGFNKSGIYTIYINNMPEPKKVFCNMDVNGGGWTVIQHREDGSLDFQRGWKEYKMGFGNPSGEYWLGNEFIFAITSQRQYMLRIELMDWEGNRAYSQYDRFHIGNEKQNYRLYLKGHTGTAGKQSSLILHGADFSTKDADNDNCMCKCALMLTGGWWFDACGPSNLNGMFYTAGQNHGKLNGIKWHYFKGPSYSLRSTTMMIRPLDF | effectively pulled down the majority
